Laboratory results from patent US12214036B2, “Combination therapy comprising AXL/MER and PD-1/PD-L1 inhibitors” (Incyte Corporation, priority 2020, dated 2025).

Tested on: CTG-1302 tumors
Assay: Sarcoma PDX model CTG-1302 (leiomyosarcoma)
Format: in vivo, athymic nude mice
Details: CTG-1302, 10, 30, 100 mg/kg BID oral, FIG. 9B
From the text: MBT-2 cells were obtained from the Japanese Collection of Research Bioresources Cell Bank and were maintained in DMEM supplemented with 10% FBS. MC38 cells were obtained from the NCI. 4T1 cells were obtained from ATCC and maintained in RPMI media supplemented with 10% FBS. For MBT-2 experiments, 5×10^5 MBT-2 cells were inoculated subcutaneously into the right hind flank of 6- to 8-week-old C3H mice or athymic nude mice (Charles River Laboratories, Wilmington, Mass.). For MC38 studies, 12-week old female C57BL/6 mice were inoculated with brei of MC38 tumors (in-vivo passage 6) into the right hind flank. For 4T1 studies, 7.5×10^5 4 T1 cells were inoculated subcutaneously into the right hind flank of 6- to 8-week-old female BALB/c mice or athymic nude mice (Charles River Laboratories). […] Mice were monitored for tumor growth and overt tolerability over the course of the experiment. […] Tumor volume was calculated using the formula (L×W^2)/2, where L and W refer to the length and width dimensions, respectively. Tumor growth inhibition (TGI) was calculated using the formula (1−(VT/VC))×100, where VT is the tumor volume of the treatment group on the last day of treatment, and VC is the tumor volume of the control group on the last day of treatment. […]
The activity of Compound 1 in sarcoma PDX models was evaluated as described in Example H for PDX models. […] Three mice per group were analyzed. […]

CC(C)C(=O)N1CCC(c2cc(-c3ccc(NC(=O)c4cn(C(C)C)c(=O)n(-c5ccccn5)c4=O)cc3)c3c(N)ncnn23)CC1 [Compound 1, N-(4-(4-Amino-7-(1-isobutyrylpiperidin-4-yl)pyrrolo[1,2-f][1,2,4]triazin-5-yl)phenyl)-1-isopropyl-2,4-dioxo-3-(pyridin-2-yl)-1,2,3,4-tetrahydropyrimidine-5-carboxamide]
antitumor response: robust antitumor response
